Data: US9708293B2, “N-(pyridin-2-yl)pyrimidin-4-amine derivatives containing a sulfone group” (BAYER PHARMA AKTIENGESELLSCHAFT, priority 2012, dated 2017)

Columns and labels:
CDK2/CycE = molecular target: T1, CDK2/CycE (Homo sapiens, UniProt P24941); test: CDK2/CycE kinase assay (Method 2a); assay type: biochemical; settings: 10 μM ATP
T1 construct: GST; purchased ProQinase GmbH (Freiburg, Germany); host or cells: insect cells (Sf9)
Text: 2a. CDK2/CycE Kinase Assay:
CDK2/CycE-inhibitory activity of compounds of the present invention was quantified employing the CDK2/CycE TR-FRET assay as described in the following paragraphs:
Recombinant fusion proteins of GST and human CDK2 and of GST and human CycE, expressed in insect cells (Sf9) and purified by Glutathion-Sepharose affinity chromatography, were purchased from ProQinase GmbH (Freiburg, Germany). As substrate for the kinase reaction biotinylated peptide biotin-Ttds-YISPLKSPYKISEG (C-terminus in amid form) was used which can be purchased e.g. form the company JERINI Peptide Technologies (Berlin, Germany).
For the assay 50 nl of a 100 fold concentrated solution of the test compound in DMSO was pipetted into a black low volume 384 well microtiter plate (Greiner Bio-One, Frickenhausen, Germany), 2 μl of a solution of CDK2/CycE in aqueous assay buffer [50 mM Tris/HCl pH 8.0, 10 mM MgCl2, 1.0 mM dithiothreitol, 0.1 mM sodium ortho-vanadate, 0.01% (v/v) Nonidet-P40 (Sigma)] were added and the mixture was incubated for 15 min at 22° C. to allow pre-binding of the test compounds to the enzyme before the start of the kinase reaction. Then the kinase reaction was started by the addition of 3 μl of a solution of adenosine-tri-phosphate (ATP, 16.7 μM=>final conc. in the 5 μl assay volume is 10 μM) and substrate (1.25 μM=>final conc. in the 5 μl assay volume is 0.75 μM) in assay buffer and the resulting mixture was incubated for a reaction time of 25 min at 22° C. The concentration of CDK2/CycE was adjusted depending of the activity of the enzyme lot and was chosen appropriate to have the assay in the linear range, typical concentrations were in the range of 130 ng/mL. The reaction was stopped by the addition of 5 μl of a solution of TR-FRET detection reagents (0.2 μM streptavidine-XL665 [Cisbio Bioassays, Codolet, France] and 1 nM anti-RB(pSer807/pSer811)-antibody from BD Pharmingen [#558389] and 1.2 nM LANCE EU-W1024 labeled anti-mouse IgG antibody [Perkin-Elmer, product no. AD0077]) in an aqueous EDTA-solution (100 mM EDTA, 0.2% (w/v) bovine serum albumin in 100 mM HEPES/NaOH pH 7.0).
The resulting mixture was incubated 1 h at 22° C. to allow the formation of complex between the phosphorylated biotinylated peptide and the detection reagents. Subsequently the amount of phosphorylated substrate was evaluated by measurement of the resonance energy transfer from the Eu-chelate to the streptavidine-XL. Therefore, the fluorescence emissions at 620 nm and 665 nm after excitation at 350 nm was measured in a TR-FRET reader, e.g. a Rubystar (BMG Labtechnologies, Offenburg, Germany) or a Viewlux (Perkin-Elmer). The ratio of the emissions at 665 nm and at […] was taken as the measure for the amount of phosphorylated substrate. […]

HeLa-MaTu-ADR cells = test: Proliferation assay, HeLa-MaTu-ADR; assay type: cell-based; settings: Homo sapiens, 96 h; 4 days, crystal violet; read-out: Inhibition of HeLa-MaTu-ADR cell proliferation IC50
Procedure: Cultivated tumour cells (HeLa, human cervical tumour cells, ATCC CCL-2; NCI-H460, human non-small cell lung carcinoma cells, ATCC HTB-177; A2780, human ovarian carcinoma cells, ECACC #93112519; DU 145, hormone-independent human prostate carcinoma cells, ATCC HTB-81; HeLa-MaTu-ADR, multidrug-resistant human cervical carcinoma cells, EPO-GmbH Berlin; Caco-2, human colorectal carcinoma cells, ATCC HTB-37; B16F10, mouse melanoma cells, ATCC CRL-6475) were plated at a density of 5,000 cells/well (DU145, HeLa-MaTu-ADR), 3,000 cells/well (NCI-H460, HeLa), 2,500 cells/well (A2780), 1,500 cells/well (Caco-2), or 1,000 cells/well (B16F10) in a 96-well multititer plate in 200 μL of their respective growth medium supplemented 10% fetal calf serum. After 24 hours, the cells of one plate (zero-point plate) were stained with crystal violet (see below), while the medium of the other plates was replaced by fresh culture medium (200 μl), to which the test substances were added in various concentrations (0 μM, as well as in the range of 0.001-10 μM; the final concentration of the solvent dimethyl sulfoxide was 0.5%). The cells were incubated for 4 days in the presence of test substances. Cell proliferation was determined by staining the cells with crystal violet: the cells were fixed by adding 20 μl/measuring point of an 11% glutaric aldehyde solution for 15 minutes at room temperature. After three washing cycles of the fixed cells with water, the plates were dried at room temperature. The cells were stained by adding 100 μl/measuring point of a 0.1% crystal violet solution (pH 3.0). After three washing cycles of the stained cells with water, the plates were dried at room temperature. The dye was dissolved by adding 100 μl/measuring point of a 10% acetic acid solution. The extinction was determined by photometry at a wavelength of 595 nm. The change of cell number, in percent, was calculated by normalization of the measured values to the extinction values of the zero-point plate (=0%) and the extinction of the untreated (0 μm) cells (=100%). […]

For `COc1cc(F)ccc1-c1cc(Nc2cc(CS(C)(=O)=O)ccn2)ncn1` [Example 1, 6-(4-Fluoro-2-methoxyphenyl)-N-{4-[(methylsulfonyl)methyl]pyridin-2-yl}pyrimidin-4-amine], the IC50 (CDK2/CycE) was 0.28 µM and the IC50 (HeLa-MaTu-ADR cells) was 0.212 µM.

For `COc1cc(F)ccc1-c1cc(Nc2cc(CS(C)(=O)=O)cc(C(F)(F)F)n2)ncn1` [Example 3, 6-(4-Fluoro-2-methoxyphenyl)-N-{4-[(methylsulfonyl)methyl]-6-(trifluoromethyl)pyridin-2-yl}pyrimidin-4-amine], the IC50 (CDK2/CycE) was 0.073 µM and the IC50 (HeLa-MaTu-ADR cells) was 0.033 µM.

Work on `COc1cc(F)ccc1-c1cc(Nc2cc(CS(C)(=O)=O)cc(C)n2)ncn1` [Example 2, 6-(4-Fluoro-2-methoxyphenyl)-N-{6-methyl-4-[(methylsulfonyl)methyl]pyridin-2-yl}pyrimidin-4-amine] yielded an IC50 (CDK2/CycE) of 0.09 µM and an IC50 (HeLa-MaTu-ADR cells) of 0.054 µM.

For `COc1cc(F)ccc1-c1cc(Nc2cc(CS(C)(=O)=O)cc(F)n2)ncn1` [Example 4, 6-(4-Fluoro-2-methoxyphenyl)-N-{6-fluoro-4-[(methylsulfonyl)methyl]pyridin-2-yl}pyrimidin-4-amine], the IC50 (CDK2/CycE) was 0.092 µM.
